Reference: patent publication US20180370912A1, “COMPOUNDS AND METHODS FOR TREATING DISEASES MEDIATED BY PROTEIN DISULFIDE ISOMERASE” (Beth Israel Deaconess Medical Center, Inc., priority 2017, published 2018)

Key:
[1] = molecular target: T1, human wild-type PDI (Homo sapiens, UniProt P07237); experiment: Redox potential determination by differential cysteine alkylation and mass spectrometry
T1 construct: FLAG; made in house; host or cells: Escherichia coli Origami B (DE3), pET-15b
Method: The redox potentials of the a (Cys53-Cys56) and a′ (Cys397-Cys400) active-site dithiols/disulfides of human wild-type PDI in the absence or presence of bepristat 2b were determined by differential cysteine alkylation and mass spectrometry. Recombinant PDI (5 μM) was incubated in the absence or presence of bepristat 2b (50 μM) in argon-flushed phosphate-buffered saline containing 0.1 mM EDTA, 0.2 mM oxidized glutathione (GSSG, Sigma) and various concentrations of reduced glutathione (GSH, Sigma) for 18 h at room temperature. Microcentrifuge tubes were flushed with argon prior to sealing to prevent oxidation by ambient air during the incubation period. […]
The fraction of reduced active-site disulfide bond was measured from the relative ion abundance of peptides containing ^12C-IPA and ^13C-IPA. […] The area was calculated using the automated peak detection function built into the software. […] The results were expressed as the ratio of reduced to oxidized protein and fitted to equation 1: […]
where R is the fraction of reduced protein at equilibrium, B is the baseline fraction of the cysteine in the population that is in the reduced state and Keq is the equilibrium constant. The standard redox potential (E^0′) of the PDI active-site disulfides were calculated using the Nernst equation (equation 2): […]

[2] = molecular target: T2, PDI fragments abb′ and b′xa′ (Homo sapiens, UniProt P07237); experiment: Di-eosin-GSSG reductase assay of PDI fragments; assay type: biochemical; conditions: 30 μM, FIG. 5a
T2 construct: abb′ (residues 1-331), or b′xa′ (residues 219-462); His; made in house; host or cells: Escherichia coli Origami B (DE3), pET-15b
Method: (§1) The probe di-eosin glutathione disulfide, di-eosin-GSSG, was prepared as previously described in Raturi, A., Vacratsis, P. O., Seslija, D., Lee, L. & Mutus, B., Biochem J 391, 351-357 (2005). Reductase activity of purified thiol isomerases and PDI domains was monitored in a 96-well fluorescence plate format. PDI, AGHA-PDI, ERpS, ERp57, ERp72 and PDI domains were assayed at 50 nM in the presence or absence of the indicated small molecules, peptides or cathepsin G. The assay included 100 mM potassium phosphate (pH 7.4) containing 2 mM EDTA, 5 μM DTT and 150 nM of the di-eosin GSSG probe. The increase in fluorescence was determined for 20 minutes by excitation at 520 nm and emission at 550 nm in a Synergy Biotek 4. The reduction of 150 nM di-eosin-GSSG by 5 μM DTT in the presence or absence of mentioned small molecules, peptides or proteins served as a negative control.
T2 sequence (P07237 236-479): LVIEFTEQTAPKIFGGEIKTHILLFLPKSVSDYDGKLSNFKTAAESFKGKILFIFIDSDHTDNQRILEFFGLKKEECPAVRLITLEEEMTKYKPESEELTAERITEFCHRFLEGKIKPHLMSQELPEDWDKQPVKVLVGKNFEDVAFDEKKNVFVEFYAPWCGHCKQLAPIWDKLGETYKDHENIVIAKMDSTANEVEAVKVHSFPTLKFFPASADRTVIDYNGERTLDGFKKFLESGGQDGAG

[3] = molecular target: T3, PDI fragments abb′ and b′xa′ (Homo sapiens, UniProt P07237); experiment: Di-eosin-GSSG reductase assay of PDI fragments; assay type: biochemical; conditions: 30 μM, FIG. 5a; remark: listed apart in the source
T3 construct: abb′ (residues 1-331), or b′xa′ (residues 219-462); His; made in house; host or cells: Escherichia coli Origami B (DE3), pET-15b
T3 sequence (P07237 18-348): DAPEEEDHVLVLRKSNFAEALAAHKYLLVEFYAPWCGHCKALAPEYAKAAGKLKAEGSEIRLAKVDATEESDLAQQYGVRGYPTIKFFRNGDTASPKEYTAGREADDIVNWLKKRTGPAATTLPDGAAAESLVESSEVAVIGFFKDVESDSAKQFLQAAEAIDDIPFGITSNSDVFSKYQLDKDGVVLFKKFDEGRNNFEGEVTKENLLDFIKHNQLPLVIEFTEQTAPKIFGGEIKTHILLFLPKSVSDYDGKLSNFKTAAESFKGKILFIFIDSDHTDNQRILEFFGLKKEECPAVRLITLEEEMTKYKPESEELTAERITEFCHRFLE
Method: as §1

[4] = molecular target: T4, full-length PDI (Homo sapiens, UniProt P07237); experiment: Small-angle X-ray scattering (SAXS)
T4 construct: FLAG; made in house; host or cells: Escherichia coli Origami B (DE3), pET-15b
T4 sequence (P07237 18-508): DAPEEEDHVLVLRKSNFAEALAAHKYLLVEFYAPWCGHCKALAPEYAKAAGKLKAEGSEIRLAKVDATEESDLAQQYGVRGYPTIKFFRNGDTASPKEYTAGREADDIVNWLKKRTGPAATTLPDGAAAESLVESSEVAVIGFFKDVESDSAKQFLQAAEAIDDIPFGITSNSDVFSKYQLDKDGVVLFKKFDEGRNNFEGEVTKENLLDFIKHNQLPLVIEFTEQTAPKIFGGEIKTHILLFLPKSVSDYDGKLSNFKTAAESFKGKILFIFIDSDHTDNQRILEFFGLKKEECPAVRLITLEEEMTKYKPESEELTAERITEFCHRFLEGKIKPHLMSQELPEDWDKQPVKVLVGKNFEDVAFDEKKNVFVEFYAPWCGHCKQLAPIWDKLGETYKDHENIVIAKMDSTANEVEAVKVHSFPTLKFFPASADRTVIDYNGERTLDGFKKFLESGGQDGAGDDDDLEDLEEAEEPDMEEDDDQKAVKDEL
Method: Further purification of full-length PDI was achieved by gel filtration. PDI (1.5, 3.0 and 4.5 mg/mL) was dialyzed against 20 mM Tris, 150 mM NaCl, 5% glycerol (pH: 8.0) containing 0.5 mM bepristat 1b or 2b or DMSO control at 4° C. overnight. Evaluation by SAXS was performed on the SIBYLS beamline in the Advanced Light Source using a high throughput data collection method.

[5] = system: tumor growth; conditions: murine model ovarian cancer, Xu et al. 2012; cited from earlier work

T1 sequence (P07237 18-508): as above

SMILES	active site disulfide bond formation under equilibrium conditions [1]	di-eosin-GSSG cleavage by b′xa′ fragment [2]	di-eosin-GSSG cleavage by abb′ fragment [3]	PDI conformation by SAXS [4]	tumor growth [5]
CCOC(=O)c1c(CNCCN(CC)CC)n(-c2ccccc2)c2cc(Br)c(O)cc12 [bepristat 2a]	impairs active site disulfide bond formation	significantly augmented the catalytic activity	failed to augment activity	more compact conformation	–
C#CC(=O)N(c1ccc(OC)cc1OC)C(C(=O)NCC(=O)OCC)c1cccs1 (centres unmarked) [PACMA-31, N-(2,4-Dimethoxyphenyl)-N-(1-oxo-2-propyn-1-yl)-2-(2-thienyl)glycyl-glycine ethyl ester, reference compound]	–	–	–	–	impairs tumor growth
